Experimental data: US10421718B2, “EBNA1 inhibitors and their method of use” (priority 2013, dated 2019)

Target: T1, His-EBNA1 (DNA binding domain of EBNA1, amino acids 459-607) (Epstein-Barr virus, UniProt P03211)
T1 construct: made in house; host or cells: E. coli
Experiment: Inhibition of 5′-biotin-oPL4624 binding to His-EBNA1 using Alpha Screen technology
Settings: Alpha Screen Activity (IC50, inhibition of 5′-biotin-oPL4624 binding to His-EBNA1), 15 nM His-EBNA1, 0.2 nM bt-oPL4624, 2 hr room temperature
In short: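 AlphaScreen signal (680 nm ex, 570 nm em) after a 2-h room-temperature incubation, normalized to no-EBNA1 (100% inhibition) and EBNA1 (0%) values and fit to a one-site curve. Final conditions: 15 nM His-EBNA1 (aa 459-607), 0.2 nM bt-oPL4624, Tris pH 7.2 buffer with 160 mM NaCl, compound 3.2 nM to 100 μM.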

T1 sequence (P03211 459-607): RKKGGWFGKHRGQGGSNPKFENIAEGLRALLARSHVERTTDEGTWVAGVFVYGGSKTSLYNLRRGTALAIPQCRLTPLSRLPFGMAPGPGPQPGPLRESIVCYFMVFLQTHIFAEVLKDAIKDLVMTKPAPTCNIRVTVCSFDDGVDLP

Row | Structure (SMILES) | IC50
1 | O=C(O)c1cccc(C#CCN2CCCC2)c1-c1ccccc1 [Entry 160, 2-phenyl-3-[3-(pyrrolidin-1-yl)prop-1-yn-1-yl]benzoic acid] | 10 to 100 µM
2 | O=C(O)c1cccc(C#CCO)c1-c1ccccc1 [Entry 161, 3-(3-hydroxyprop-1-yn-1-yl)-2-phenylbenzoic acid] | 100 to 1000 µM
3 | NCc1cccc(C#Cc2cccc(C(=O)O)c2-n2cccc2)c1 [Entry 162, 3-{2-[3-(Aminomethyl)phenyl]ethynyl}-2-(1H-pyrrol-1-yl)benzoic acid] | 1 to 10 µM
4 | O=C(O)c1cccc(C#Cc2cccc(CNS(=O)(=O)c3cc(F)cc(F)c3)c2)c1-n1cccc1 [Entry 163, 3-{2-[3-(3,5-difluorobenzenesulfonamidomethyl)phenyl]ethynyl}-2-(1H-pyrrol-1-yl)benzoic acid] | 1 to 10 µM
5 | Cc1ncc(S(=O)(=O)NCc2ccc(C#Cc3cccc(C(=O)O)c3-n3cccc3)cc2)n1C [Entry 164] | 1 to 10 µM
6 | O=C(O)c1cccc(C#Cc2cccc(CNS(=O)(=O)C3CC3)c2)c1-n1cccc1 [Entry 165, 3-{2-[3-(cyclopropanesulfonamidomethyl)phenyl]ethynyl}-2-(1H-pyrrol-1-yl)benzoic acid] | < 1 µM
7 | COc1cccc(-c2c(C#Cc3c[nH]c4ncccc34)cccc2C(=O)O)c1 [Entry 166, 2-(3-methoxyphenyl)-3-(2-{1H-pyrrolo[2,3-b]pyridin-3-yl}ethynyl)benzoic acid] | 10 to 100 µM
8 | Cn1ncc2ccc(-c3c(C#Cc4c[nH]c5ncccc45)cccc3C(=O)O)cc21 [Entry 167, 2-(1-methyl-1H-indazol-6-yl)-3-(2-{1H-pyrrolo[2,3-b]pyridin-3-yl}ethynyl)benzoic acid] | 10 to 100 µM
9 | Cc1nc2cc(-c3c(C#Cc4c[nH]c5ncccc45)cccc3C(=O)O)ccc2s1 [Entry 168, 2-(2-methyl-1,3-benzothiazol-5-yl)-3-(2-{1H-pyrrolo[2,3-b]pyridin-3-yl}ethynyl)benzoic acid] | 10 to 100 µM
10 | Cn1ncc2ccc(-c3c(C#Cc4cscn4)cccc3C(=O)O)cc21 [Entry 170] | 1 to 10 µM
11 | Cn1ccc2cc(-c3c(C#Cc4cscn4)cccc3C(=O)O)ccc21 [Entry 171] | 1 to 10 µM
12 | O=C(O)c1cccc(C#Cc2cscn2)c1-c1ccncc1 [Entry 172] | 10 to 100 µM
13 | Cc1nc2cc(-c3c(C#Cc4cscn4)cccc3C(=O)O)ccc2s1 [Entry 173] | 10 to 100 µM
14 | O=C(O)c1cccc(C#Cc2ccncc2)c1-c1c[nH]c2ccccc12 [Entry 174, 2-(1H-indol-3-yl)-3-[2-(pyridin-4-yl)ethynyl]benzoic acid] | 1 to 10 µM
15 | CN(C)c1ccc(-c2c(C#Cc3ccncc3)cccc2C(=O)O)cc1 [Entry 175, 2-[4-(dimethylamino)phenyl]-3-[2-(pyridin-4-yl)ethynyl]benzoic acid] | 10 to 100 µM
16 | CN1CCOc2cc(-c3c(C#Cc4ccncc4)cccc3C(=O)O)ccc21 [Entry 176, 2-(4-methyl-3,4-dihydro-2H-1,4-benzoxazin-7-yl)-3-[2-(pyridin-4-yl)ethynyl]benzoic acid] | 10 to 100 µM
17 | O=C(O)c1cccc(C#Cc2ccncc2)c1-c1ccccc1 [Entry 177, 2-phenyl-3-[2-(pyridin-4-yl)ethynyl]benzoic acid] | 100 to 1000 µM
18 | O=C(O)c1cccc(C#Cc2cc(C(=O)O)c3cc[nH]c3c2)c1 [Entry 178, 6-(3-carboxy-phenylethynyl)-1H-indole-4-carboxylic acid] | 1 to 10 µM
19 | NC(=O)c1cc(C#Cc2cccc(C(=O)O)c2)cc2[nH]ccc12 [Entry 179, 3-(4-carbamoyl-1H-indol-6-ylethynyl)-benzoic acid] | 1 to 10 µM
20 | NC(=O)c1cccc(C#Cc2cccc(C(=O)O)c2)c1 [Entry 180, 3-(3-carbamoyl-phenylethynyl)-benzoic acid] | < 1 µM
21 | O=C(O)c1cccc(C#Cc2cn(S(=O)(=O)c3ccccc3)c3ccccc23)c1 [Entry 181, 3-(1-benzenesulfonyl-1H-indol-3-ylethynyl)-benzoic acid] | 10 to 100 µM
22 | O=C(O)c1cccc(C#Cc2c[nH]c3ccccc23)c1 [Entry 182, 3-(1H-indol-3-ylethynyl)-benzoic acid] | 10 to 100 µM
